According to patent publication US7763602B2, “Pyrrole derivatives as antimycobacterial compounds” (priority 2002, dated 2010):
Values after ≈ are worked out from the molar mass of the structure shown.

What was measured:
[1] = system: M. tuberculosis clinical isolates, sensitive; assay: microbe, parasite or virus in culture; format: cell-based, Mycobacterium tuberculosis; conditions: for MIC (μg/ml) against Clinical isolates Sensitive: Table I, agar dilution; for MIC: Mycobacterium tuberculosis, read-out: MIC (μg/ml) against Clinical isolates Sensitive
[2] = system: M. tuberculosis H37Rv ATCC 27294; assay: In vitro growth inhibition assay, BACTEC 460 TB system; format: cell-based, Mycobacterium tuberculosis; set-up: key: +: If ΔGI of test vial is less than that of the control vial the culture was sensitive to the test compound; conditions: final concentration 6.25 μg/ml
[3] = system: M. tuberculosis 27294; assay: In vitro agar dilution assay (MIC), reference strain; format: cell-based, Mycobacterium tuberculosis; conditions: for MIC (μg/ml) against M. tuberculosis-27294: Table I; for MIC: Mycobacterium tuberculosis, 27294, Table I, read-out: MIC (μg/ml) against M. tuberculosis-27294

Row | SMILES | melting point [°C] | MIC (μg/ml) against Clinical isolates Sensitive [1] [µg/mL] | Growth inhibition of M. tuberculosis 27294 [2] | MIC (μg/ml) against M. tuberculosis-27294 [3] [µg/mL] | MIC [1] [µg/mL] | MIC [3] [µg/mL]
1 | Cc1cc(CN2CCN(C(c3ccccc3)c3ccccc3)CC2)c(-c2ccc(Cl)cc2)n1-c1ccc(F)cc1F | 76 to 78 |  |  |  |  | 
2 | Cc1cc(CN2CCN(c3ccccn3)CC2)c(-c2ccccc2)n1-c1ccccn1 | 135 to 137 |  |  |  |  | 
3 | COc1ccccc1N1CCN(Cc2cc(C)n(NC(=O)c3cnccn3)c2-c2ccc(Cl)cc2)CC1 [compound 42, N-(2-(4-chlorophenyl)-3-{[4-(2-methoxyphenyl)piperazinyl]methyl}-5-methylpyrrolyl)pyrazin-2-ylcarboxamide] |  | 8.0 (≈ 15.5 µM) | + | 8.0 (≈ 15.5 µM) |  | 
4 | Cc1c(CN2CCN(c3ccc(F)cc3)CC2)cc(-c2ccc(Cl)cc2)n1-c1ccc(F)cc1F [compound 44, 1-{[1-(2,4-difluorophenyl)-5-(4-chlorophenyl)-2-methylpyrrol-3-yl]methyl}-4-(4-fluorophenyl)piperazine] |  |  | + |  | 1 to 2 (≈ 2.02 to 4.03 µM) | 1 (≈ 2.02 µM)
5 | COc1ccccc1N1CCN(Cc2cc(-c3ccc(Cl)cc3)n(-c3ccc(F)cc3F)c2C)CC1 [compound 45, 1-{[1-(2,4-difluorophenyl)-5-(4-chlorophenyl)-2-methylpyrrol-3-yl]methyl}-4-(2-methoxyphenyl)piperazine] |  |  | + |  | 0.5 to 2 (≈ 0.984 to 3.94 µM) | 0.5 (≈ 0.984 µM)
6 | Cc1c(CN2CCN(c3cccc(C(F)(F)F)c3)CC2)cc(-c2ccc(Cl)cc2)n1-c1ccc(F)cc1F [compound 46, 1-{[1-(2,4-difluorophenyl)-5-(4-chlorophenyl)-2-methylpyrrol-3-yl]methyl}-4-(3-trifluoromethylphenyl)piperazine] |  |  | + |  | 2 to 4 (≈ 3.66 to 7.33 µM) | 2 (≈ 3.66 µM)
7 | Cc1c(CN2CCN(c3ccccn3)CC2)cc(-c2ccc(Cl)cc2)n1-c1ccc(F)cc1F [compound 47, 1-{[1-(2,4-difluorophenyl)-5-(4-chlorophenyl)-2-methylpyrrol-3-yl]methyl}-4-(2-pyridyl)piperazine] |  |  | + |  | 0.25 to 1 (≈ 0.522 to 2.09 µM) | 0.25 (≈ 0.522 µM)
8 | Cc1c(CN2CCN(C(c3ccccc3)c3ccccc3)CC2)cc(-c2ccc(Cl)cc2)n1-c1ccc(F)cc1F [compound 48, 1-{[1-(2,4-difluorophenyl)-5-(4-chlorophenyl)-2-methylpyrrol-3-yl]methyl}-4-(4-diphenylmethyl)piperazine] |  | >16.0 | + | >16.0 |  | 
9 | Cc1c(CN2CCN(Cc3ccc4c(c3)OCO4)CC2)cc(-c2ccc(Cl)cc2)n1-c1ccc(F)cc1F [compound 50, 5-[(4-{[1-(2,4-difluorophenyl)-5-(4-chlorophenyl)-2-methylpyrrol-3-yl]-methyl}-piperazinyl)methyl]-2H-benzo[d]1,3-dioxolane] |  | 2.0 to 4.0 | + | 2.0 (≈ 3.73 µM) |  | 
10 | COc1ccccc1N1CCN(Cc2cc(-c3ccccc3)n(-c3ccc(F)cc3F)c2C)CC1 [compound 52, 1-{[1-(2,4-difluorophenyl)-2-methyl-5-phenylpyrrol-3-yl]methyl}-4-(2-methoxyphenyl)piperazine] |  |  | + |  | 8 (≈ 16.9 µM) | 8 (≈ 16.9 µM)
11 | Cc1c(CN2CCN(c3ccccn3)CC2)cc(-c2ccccc2)n1-c1ccc(F)cc1F [compound 54, 1-{[1-(2,4-difluorophenyl)-2-methyl-5-phenylpyrrol-3-yl]methyl}-4-(2-pyridyl) piperazine] | 144 to 146 |  | + |  | 4 (≈ 9 µM) | 2 (≈ 4.5 µM)
12 | COc1ccccc1N1CCN(Cc2cc(C)n(-c3ccc(F)cc3F)c2-c2ccccc2)CC1 [compound 56, 1-{[1-(2,4-difluorophenyl)-5-methyl-2-phenylpyrrol-3-yl]methyl}-4-(2-methoxyphenyl) piperazine] | 60 to 62 |  | + |  | 8 (≈ 16.9 µM) | 8 (≈ 16.9 µM)
13 | Cc1cc(CN2CCN(c3cccc(C(F)(F)F)c3)CC2)c(-c2ccccc2)n1-c1ccc(F)cc1F [compound 57, 1-{[1-(2,4-difluorophenyl)-5-methyl-2-phenylpyrrol-3-yl]methyl}-4-(3-trifluoromethylphenyl)piperazine] |  |  | + |  | > 16 | > 16
14 | Cc1cc(CN2CCN(c3ccccn3)CC2)c(-c2ccccc2)n1-c1ccc(F)cc1F [compound 58, 1-{[1-(2,4-difluorophenyl)-5-methyl-2-phenylpyrrol-3-yl]methyl}-4-(2-pyridyl) piperazine] |  |  | + |  | 8 (≈ 18 µM) | 8 (≈ 18 µM)
15 | Cc1c(CN2CCN(c3cccc(C(F)(F)F)c3)CC2)cc(-c2ccc(Cl)cc2)n1-c1cccc2ccccc12 [compound 60, 1-{[5-(4-chlorophenyl)-2-methyl-1-naphthylpyrrol-3-yl]methyl}-4-(3-trifluoromethylphenyl)piperazine] |  | 2.0 to 8.0 | + | 4.0 (≈ 7.14 µM) |  | 
16 | Cc1c(CN2CCN(c3ccccn3)CC2)cc(-c2ccc(Cl)cc2)n1-c1cccc2ccccc12 [compound 61, 1-{[5-(4-chlorophenyl)-2-methyl-1-naphthylpyrrol-3-yl]methyl}-4-(2-pyridyl) piperazine] |  | 4.0 to 8.0 | + | 4.0 (≈ 8.11 µM) |  | 
17 | Cc1c(CN2CCN(Cc3ccc4c(c3)OCO4)CC2)cc(-c2ccc(Cl)cc2)n1-c1cccc2ccccc12 [compound 62, 5-[(4-{[5-(4-chlorophenyl)-2-methyl-1-naphthylpyrrol-3-yl]methyl}-piperazinyl)methyl]-2H-benzo[d]1,3-dioxolane] |  | >16.0 | + | >16.0 |  | 
18 | COc1ccccc1N1CCN(Cc2cc(C)n(-c3cccc4ccccc34)c2-c2ccc(Cl)cc2)CC1 [compound 63, 1-{[2-(4-chlorophenyl)-5-methyl-1-naphthylpyrrol-3-yl]methyl}-4-(2-methoxyphenyl)piperazine] |  | 4.0 to 8.0 | + | 8.0 (≈ 15.3 µM) |  | 
19 | Cc1c(CN2CC[S+]([O-])CC2)cc(-c2ccccc2)n1-c1ccccc1 [compound 87, 4-[(2-methyl-1,5-diphenylpyrrol-3-yl)methyl]1,4-thiazaperhydroin-1-one] |  | 8.0 to 16.0 | + | 8.0 (≈ 21.9 µM) |  | 
20 | Cc1c(CN2CCS(=O)(=O)CC2)cc(-c2ccccc2)n1-c1ccccc1 [compound 88] |  | 1.0 to 4.0 | + | 0.5 (≈ 1.31 µM) |  | 
21 | Cc1c(CN2CCSCC2)cc(-c2ccc(Cl)cc2)n1NC(=O)c1ccncc1 [compound 89, N-[5-(4-chlorophenyl)-2-methyl-3-(1,4-thiazaperhydroin-4-ylmethyl)pyrrolyl]-4-pyridylcarboxamide] |  | 2.0 to 8.0 | + | 1.0 (≈ 2.34 µM) |  | 
22 | CCC(CO)n1c(-c2ccccc2)cc(CN2CCSCC2)c1C (stereo not shown) [compound 91, 2-[2-methyl-5-phenyl-3-(1,4-thiazaperhydroin-4-ylmethyl)pyrrolyl]butan-1-ol] |  | 4.0 to 8.0 | + | 4.0 (≈ 11.6 µM) |  | 
